Results published in ChEMBL document CHEMBL1201862, “PubChem BioAssay data set” (2004).
The source made the active and inactive calls.

Assays:
[1] = HEp-2 cell cytotoxicity, dose response, cytotoxicity control for RSV inhibitor project, HTS (AID 2410); assay type: functional; conditions: human respiratory syncytial virus
[2] = biological target: T1, Replicative DNA helicase DnaB (Mycobacterium tuberculosis, UniProt P9WMR3); assay: DnaB intein splicing inhibitors, dose response, biochemical, cell-free fluorescence (AID 449749); assay type: functional
T1 sequence (P9WMR3 whole entry): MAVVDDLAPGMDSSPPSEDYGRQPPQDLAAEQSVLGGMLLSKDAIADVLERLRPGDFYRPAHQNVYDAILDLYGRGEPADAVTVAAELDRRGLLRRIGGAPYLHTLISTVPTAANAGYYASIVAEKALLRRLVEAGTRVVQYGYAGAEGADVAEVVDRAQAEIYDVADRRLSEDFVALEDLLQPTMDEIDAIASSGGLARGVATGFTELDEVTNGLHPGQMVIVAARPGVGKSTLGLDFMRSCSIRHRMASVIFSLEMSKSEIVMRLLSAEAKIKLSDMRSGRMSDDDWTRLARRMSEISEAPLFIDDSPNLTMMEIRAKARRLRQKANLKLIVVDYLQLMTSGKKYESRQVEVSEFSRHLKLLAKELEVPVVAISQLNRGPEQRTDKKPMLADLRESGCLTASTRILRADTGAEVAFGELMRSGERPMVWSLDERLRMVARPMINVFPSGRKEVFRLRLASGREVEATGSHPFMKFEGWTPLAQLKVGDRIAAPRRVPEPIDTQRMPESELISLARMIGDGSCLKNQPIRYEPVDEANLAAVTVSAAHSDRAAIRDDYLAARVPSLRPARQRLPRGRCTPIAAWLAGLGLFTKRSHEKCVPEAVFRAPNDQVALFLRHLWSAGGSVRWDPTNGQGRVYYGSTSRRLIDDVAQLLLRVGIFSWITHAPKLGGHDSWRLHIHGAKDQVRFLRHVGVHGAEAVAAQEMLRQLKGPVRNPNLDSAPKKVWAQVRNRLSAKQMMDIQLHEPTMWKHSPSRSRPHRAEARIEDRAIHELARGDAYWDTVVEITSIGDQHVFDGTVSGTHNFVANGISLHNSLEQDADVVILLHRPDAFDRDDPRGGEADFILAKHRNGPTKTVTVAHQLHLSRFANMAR

Protein RecA = biological target: T2, Protein RecA (Mycobacterium tuberculosis, UniProt P9WHJ3); assay: Fluorescence Cell-Free Homogeneous Dose Retest to Identify Inhibitors of RecA-Intein Splicing Activity. [Related pubchem assays (depositor defined):AID2097, AID2223, AID489010, AID492950]; assay type: functional
T2 sequence (P9WHJ3 whole entry): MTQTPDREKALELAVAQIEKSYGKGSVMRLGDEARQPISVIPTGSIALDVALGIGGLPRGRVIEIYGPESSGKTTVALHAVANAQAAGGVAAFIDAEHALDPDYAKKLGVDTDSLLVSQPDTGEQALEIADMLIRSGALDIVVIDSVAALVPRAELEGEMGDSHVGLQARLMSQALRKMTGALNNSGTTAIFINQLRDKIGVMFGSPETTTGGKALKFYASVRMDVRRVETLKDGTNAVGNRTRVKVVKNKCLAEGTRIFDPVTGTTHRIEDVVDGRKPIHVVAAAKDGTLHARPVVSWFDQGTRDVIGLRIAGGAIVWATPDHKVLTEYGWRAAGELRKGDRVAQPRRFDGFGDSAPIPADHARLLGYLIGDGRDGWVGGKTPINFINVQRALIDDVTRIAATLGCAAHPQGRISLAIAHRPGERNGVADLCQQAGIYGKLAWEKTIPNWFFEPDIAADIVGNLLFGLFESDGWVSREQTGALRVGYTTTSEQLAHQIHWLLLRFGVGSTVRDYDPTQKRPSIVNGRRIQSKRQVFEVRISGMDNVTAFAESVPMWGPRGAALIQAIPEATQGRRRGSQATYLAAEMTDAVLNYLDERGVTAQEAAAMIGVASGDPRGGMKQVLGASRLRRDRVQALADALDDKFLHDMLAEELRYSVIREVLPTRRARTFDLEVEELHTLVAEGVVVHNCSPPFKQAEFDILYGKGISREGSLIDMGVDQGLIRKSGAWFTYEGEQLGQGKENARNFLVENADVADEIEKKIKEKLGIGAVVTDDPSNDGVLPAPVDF

Cytochrome P450 2D6 = Cytochrome P450 2D6 (Homo sapiens, UniProt P10635);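 also: CYP2D6 member of a cytochrome P450 panel assay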
Cytochrome P450 2C9 = Cytochrome P450 2C9 (Homo sapiens, UniProt P11712)
Streptococcus = assay: Group A Streptococcus viability loss, dose response, counter-screen for streptokinase expression inhibitor project, luminescence, BacTiterGlo (AID 1915); assay type: functional, organism-based;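 also: potency for reduction of bacterial viability or growth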
Streptokinase A = biological target: T3, Streptokinase A (Streptococcus pyogenes serotype M1, UniProt P10520); assay: S. pyogenes streptokinase expression inhibitors, potency, dose response, plasminogen activation absorbance, OD405 (AID 1914); assay type: functional, Streptococcus pyogenes M1 GAS;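 also: secreted streptokinase activity via plasminogen activation per viability signal from cell pellet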
T3 sequence (P10520 whole entry): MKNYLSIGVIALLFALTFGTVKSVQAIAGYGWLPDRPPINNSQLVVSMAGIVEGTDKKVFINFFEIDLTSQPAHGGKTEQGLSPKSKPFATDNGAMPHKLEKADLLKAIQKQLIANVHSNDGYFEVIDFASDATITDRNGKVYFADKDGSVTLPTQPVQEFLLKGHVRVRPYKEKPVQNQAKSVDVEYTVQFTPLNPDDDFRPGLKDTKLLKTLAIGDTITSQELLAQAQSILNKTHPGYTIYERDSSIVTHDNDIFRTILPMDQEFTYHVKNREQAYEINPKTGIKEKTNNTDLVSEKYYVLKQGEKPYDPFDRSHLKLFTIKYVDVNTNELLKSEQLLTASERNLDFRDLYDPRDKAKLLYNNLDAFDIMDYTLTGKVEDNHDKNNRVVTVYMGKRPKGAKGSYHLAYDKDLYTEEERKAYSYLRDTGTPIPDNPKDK

[3] = tested on: Streptococcus sp. 'group A'; assay: growth inhibition of control SK(-) GAS strain, dose response, counter-screen for streptokinase expression inhibitor project, luminescence, kanamycin, BacTiterGlo, confirmation (AID 1900); assay type: functional, organism-based
[4] = biological target: T4, Heat shock factor protein 1 (Mus musculus, UniProt P38532); assay: HSF1 potentiators in luciferase reporter cells, confirmation, cell-based, NIH3T3, luminescence, dose retest (AID 435004); assay type: functional;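 also: stress induced by proteasome inhibitor MG132 added 30 min after compound; luciferase reporter driven by HSF1 response element in NIH3T3 cells; actives raise luminescence as potentiators of the MG132 stress response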
T4 sequence (P38532 whole entry): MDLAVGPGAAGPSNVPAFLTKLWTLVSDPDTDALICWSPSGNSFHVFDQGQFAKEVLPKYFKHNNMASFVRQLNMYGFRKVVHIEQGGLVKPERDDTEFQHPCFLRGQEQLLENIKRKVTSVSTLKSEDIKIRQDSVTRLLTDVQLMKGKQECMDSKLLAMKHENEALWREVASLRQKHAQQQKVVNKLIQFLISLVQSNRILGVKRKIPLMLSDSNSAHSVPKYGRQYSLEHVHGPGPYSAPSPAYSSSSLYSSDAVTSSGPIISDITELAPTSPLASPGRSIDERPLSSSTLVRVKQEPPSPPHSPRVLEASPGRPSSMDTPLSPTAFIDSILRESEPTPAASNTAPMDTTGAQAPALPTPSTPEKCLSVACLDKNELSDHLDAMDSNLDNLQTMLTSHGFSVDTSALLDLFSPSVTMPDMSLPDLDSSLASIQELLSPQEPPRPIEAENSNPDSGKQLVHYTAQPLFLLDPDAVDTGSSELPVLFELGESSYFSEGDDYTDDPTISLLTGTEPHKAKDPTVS

[5] = biological target: T5, Corticotropin-releasing factor receptor 2/Corticotropin-releasing factor-binding protein (Homo sapiens, UniProt P24387+Q13324); assay: activators of CRF receptor 2 with binding protein – uHTS hits, confirmation (AID 602473); assay type: functional; conditions: read-out: EC50_Mean
T5 sequence (Q13324 whole entry): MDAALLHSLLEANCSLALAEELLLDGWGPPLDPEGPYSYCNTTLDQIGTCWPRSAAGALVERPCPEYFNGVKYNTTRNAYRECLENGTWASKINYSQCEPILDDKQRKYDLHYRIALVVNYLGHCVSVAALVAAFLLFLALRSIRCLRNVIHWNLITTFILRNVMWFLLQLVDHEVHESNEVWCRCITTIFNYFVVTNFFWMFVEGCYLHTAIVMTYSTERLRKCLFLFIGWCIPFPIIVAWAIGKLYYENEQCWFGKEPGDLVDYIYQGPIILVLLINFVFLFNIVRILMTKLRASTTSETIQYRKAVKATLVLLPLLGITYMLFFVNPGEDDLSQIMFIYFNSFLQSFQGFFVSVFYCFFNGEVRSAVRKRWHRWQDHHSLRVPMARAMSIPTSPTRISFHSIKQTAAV
T5 sequence (P24387 whole entry): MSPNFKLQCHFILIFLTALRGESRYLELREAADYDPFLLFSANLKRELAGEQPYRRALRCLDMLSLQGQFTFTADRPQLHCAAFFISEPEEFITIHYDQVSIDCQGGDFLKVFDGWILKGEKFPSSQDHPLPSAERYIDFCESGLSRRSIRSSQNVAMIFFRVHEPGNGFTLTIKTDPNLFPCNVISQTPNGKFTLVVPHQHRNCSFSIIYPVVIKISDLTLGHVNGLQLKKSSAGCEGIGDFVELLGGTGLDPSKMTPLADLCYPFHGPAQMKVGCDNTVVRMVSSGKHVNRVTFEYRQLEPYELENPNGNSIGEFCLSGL

Chain of Cytochrome P450 2C9 (P11712 whole entry): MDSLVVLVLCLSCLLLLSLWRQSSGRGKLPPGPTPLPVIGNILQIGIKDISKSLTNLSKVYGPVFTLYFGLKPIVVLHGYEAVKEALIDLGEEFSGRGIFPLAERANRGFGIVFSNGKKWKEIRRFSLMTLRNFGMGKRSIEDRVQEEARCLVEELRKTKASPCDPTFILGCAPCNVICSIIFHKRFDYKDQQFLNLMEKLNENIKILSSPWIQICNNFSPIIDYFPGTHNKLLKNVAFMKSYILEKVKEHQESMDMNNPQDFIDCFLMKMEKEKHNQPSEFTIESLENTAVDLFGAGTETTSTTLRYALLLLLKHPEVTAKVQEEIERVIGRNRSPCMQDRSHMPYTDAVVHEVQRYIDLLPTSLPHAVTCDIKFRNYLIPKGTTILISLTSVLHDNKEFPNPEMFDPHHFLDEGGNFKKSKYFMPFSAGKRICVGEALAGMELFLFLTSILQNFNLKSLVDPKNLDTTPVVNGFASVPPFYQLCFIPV
Chain of Cytochrome P450 2D6 (P10635 whole entry): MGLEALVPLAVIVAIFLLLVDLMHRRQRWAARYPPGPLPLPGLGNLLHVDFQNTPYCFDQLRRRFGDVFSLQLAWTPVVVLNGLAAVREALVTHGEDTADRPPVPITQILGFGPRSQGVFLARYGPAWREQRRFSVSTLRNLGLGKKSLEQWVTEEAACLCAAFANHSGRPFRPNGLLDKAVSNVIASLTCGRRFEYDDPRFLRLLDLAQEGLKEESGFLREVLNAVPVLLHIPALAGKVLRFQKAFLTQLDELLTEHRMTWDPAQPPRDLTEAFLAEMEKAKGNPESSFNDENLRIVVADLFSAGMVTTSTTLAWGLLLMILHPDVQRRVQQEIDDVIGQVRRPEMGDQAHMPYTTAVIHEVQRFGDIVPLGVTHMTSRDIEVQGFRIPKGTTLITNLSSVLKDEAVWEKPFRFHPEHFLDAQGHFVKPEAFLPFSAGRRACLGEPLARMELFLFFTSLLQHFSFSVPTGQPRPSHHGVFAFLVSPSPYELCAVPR

| Structure (SMILES) | CC50 [1] | AC50 [2] | EC50 (Protein RecA) | also measured |
| --- | --- | --- | --- | --- |
| Brc1ccc2c(c1)C(c1ccc(N3CCOCC3)cc1)=NNC(c1cccs1)=N2 | 32.1 µM (active) |  |  |  |
| CC(=O)Oc1ccc(N(C(C)=O)S(=O)(=O)c2ccc3ccccc3c2)cc1Br |  | 9.4 µM (active) | 17.3 µM (active) |  |
| N[C@@H]1C[C@H]1c1ccccc1.N[C@H]1C[C@@H]1c1ccccc1 [TRANYLCYPROMINE] |  |  |  | AC50 (Cytochrome P450 2D6): 31.6 µM (inconclusive); AC50 (Cytochrome P450 2C9): 39.8 µM (inconclusive) |
| O=C(Nc1nnc(SCc2ccccc2Cl)s1)C1COc2ccccc2O1 (stereo not drawn) |  |  |  | EC50 (Streptococcus): 16.7 µM (active); EC50 (Streptokinase A): 7.36 µM (active); EC50 [3]: 4.52 µM (active) |
| COc1cc(Cn2nnc3ccccc32)cc(Br)c1O | 23.2 µM (active) |  |  |  |
| COC(=O)c1[nH]c2ccc(Br)cc2c1NC(=O)CN1CCCc2ccccc21 | 41.9 µM (active) |  |  |  |
| CC(C)(C)C(=O)Nc1cccc(-c2cc(-c3c(Cl)cccc3Cl)no2)c1 | 12.9 µM (active) |  |  | EC50 [4]: > 260 µM (inactive) |
| CCOc1ccc(S(=O)(=O)N2CCN(c3ccccc3)CC2)c2cccnc12 | 30.9 µM (active) |  |  |  |
| C/C(=N\Nc1cccc([N+](=O)[O-])c1)c1cc(F)ccc1O | > 50 µM (active) |  |  |  |
| COc1ccc(-c2oc3cccnc3c2C#CC2(O)CCCCC2)cc1 |  |  |  | EC50 (Streptococcus): 11.1 µM (active); EC50 (Streptokinase A): > 150 µM (not active); EC50 [3]: 7.18 µM (active) |
| O=C1/C(=C/c2ccc3c(c2)OCO3)CCC/C1=C\c1ccc2c(c1)OCO2 |  | > 380 µM (inactive) | > 380 µM (inactive) |  |
| O=C(N/C=C/c1ccccc1)Nc1ccc(Cl)cc1 | 20.8 µM (active) |  |  |  |
| COc1ccc(-c2[nH]nc3c2C(c2ccoc2)C(C#N)=C(N)O3)cc1 (stereo not drawn) |  | 1.39 µM (active) | 0.548 µM (active) |  |
| O=C(Nc1cnc(O)nc1O)c1cccc(F)c1 | 18.6 µM (active) |  |  |  |
| O=C(CNC(=O)c1ccc(F)cc1)N/N=C/c1cc(Br)ccc1OCc1ccccc1 |  |  |  | EC50 (Streptococcus): 32.6 µM (active); EC50 (Streptokinase A): > 150 µM (not active); EC50 [3]: 10.3 µM (active) |
| COc1ccc(N(C)C(=O)c2cc3c(s2)-c2c(C)cccc2OC3)c(OC)c1 | 19.6 µM (active) | 74.5 µM (active) | 133 µM (inconclusive) |  |
| Cc1oc2cc(O)cc(C)c2c(=O)c1-c1cnn(-c2ccccc2)c1 | 15.6 µM (active) |  |  |  |
| Cc1[nH]n(-c2ccccc2)c(=O)c1C=C1C(=O)NC(=O)NC1=O |  | 16.8 µM (active) | 7.39 µM (active) |  |
| Clc1ccc(SCc2cc(Cl)nc(-c3ccccc3)n2)cc1 |  |  |  | EC50 (Streptococcus): > 150 µM (not active); EC50 (Streptokinase A): 17 µM (active); EC50 [3]: > 150 µM (not active) |
| O=C1C=C/C(=N/c2cccc3c(/N=C4\C=CC(=O)O4)cccc23)O1 |  |  |  | AC50 (Cytochrome P450 2C9): 6.31 µM (inconclusive) |
| Cc1ccc(S(=O)(=O)Oc2ccc(C(c3c(C)n[nH]c3O)c3c(C)n[nH]c3O)cc2)cc1 |  | 7.06 µM (active) | 46.2 µM (active) | EC50 [5]: > 53 µM (inactive) |
| Cc1ccc(NC(=O)c2sc3ncnc(N4CCN(c5ccccn5)CC4)c3c2C)c(C)c1 |  | 15.7 µM (active) | > 380 µM (inactive) |  |
| CCCc1n[nH]c2c1C(c1cc(OC)cc(OC)c1)C(C#N)=C(N)O2 (stereo not drawn) |  | 1.27 µM (active) | 1.51 µM (active) |  |
| N#CC1=C(N)N(c2ccccc2)C(c2cccc([N+](=O)[O-])c2)C1(C#N)C#N (stereo not drawn) |  | 5.73 µM (active) | 12.8 µM (active) |  |
| Cc1nc2ccc(S(=O)(=O)NC(CC(C)C)C(=O)O)cc2s1 (stereo not drawn) |  |  |  | AC50 (Cytochrome P450 2C9): 12.6 µM (inconclusive) |
| Cc1noc(C)c1COC(=O)CCN1c2ccccc2Sc2ccccc21 | 37.9 µM (active) |  |  |  |
| CCCc1n[nH]c2c1C(c1ccsc1)C(C#N)=C(N)O2 (stereo not drawn) |  | 16.5 µM (active) | 2.28 µM (active) |  |
| O=C(c1ccc2nc(Cc3cccc(Cl)c3)oc2c1)N1CCC(O)CC1 |  | 357 µM (active) | > 380 µM (inactive) |  |
| O=[N+]([O-])c1cc(C(F)(F)F)ccc1SCC(O)CO (stereo not drawn) | > 50 µM (active) |  |  |  |
| c1ccc2c(CSCc3cccc4ccccc34)cccc2c1 |  |  |  | AC50 (Cytochrome P450 2C9): 3.16 µM (inconclusive) |
